In brackets after ≈: the same amount, converted by molar mass. Activity calls are given as the source filed them. No cut-off for these calls is given here.
Columns and labels:
[1] = AUClast in Sprague-Dawley rat at 2 mg/kg, iv measured up to 24 hrs by LC-MS/MS analysis; assay type: ADME, organism-based; details: in vivo
[2] = biological target: Protein cereblon/Interleukin-1 receptor-associated kinase 4 (Mus musculus) (UniProt Q8C7D2+Q8R4K2); test: In-vivo PROTAC activity at C57BL/6 mouse assessed as reduction in IRAK4 level in spleen at 10 mg/kg, po measured after 24 hrs by Western blot analysis; assay type: functional, organism-based; design: scale not given: the % may be the effect or the level left
Protein cereblon/Interleukin-1 receptor-associated kinase 4 (Mus musculus), sequence (Q8C7D2 whole entry, looked up): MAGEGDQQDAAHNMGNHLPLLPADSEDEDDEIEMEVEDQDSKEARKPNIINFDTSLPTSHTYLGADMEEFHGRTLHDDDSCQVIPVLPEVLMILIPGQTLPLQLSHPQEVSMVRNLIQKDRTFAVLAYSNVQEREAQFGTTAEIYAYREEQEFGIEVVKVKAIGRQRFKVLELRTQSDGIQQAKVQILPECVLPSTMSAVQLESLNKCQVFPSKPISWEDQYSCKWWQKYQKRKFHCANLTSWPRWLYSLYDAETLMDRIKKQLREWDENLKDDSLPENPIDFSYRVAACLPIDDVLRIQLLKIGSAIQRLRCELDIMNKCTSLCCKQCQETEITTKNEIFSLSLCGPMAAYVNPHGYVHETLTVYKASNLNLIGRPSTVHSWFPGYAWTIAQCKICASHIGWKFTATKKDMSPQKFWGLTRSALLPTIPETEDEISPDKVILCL
Protein cereblon/Interleukin-1 receptor-associated kinase 4 (Mus musculus), sequence (Q8R4K2 whole entry, looked up): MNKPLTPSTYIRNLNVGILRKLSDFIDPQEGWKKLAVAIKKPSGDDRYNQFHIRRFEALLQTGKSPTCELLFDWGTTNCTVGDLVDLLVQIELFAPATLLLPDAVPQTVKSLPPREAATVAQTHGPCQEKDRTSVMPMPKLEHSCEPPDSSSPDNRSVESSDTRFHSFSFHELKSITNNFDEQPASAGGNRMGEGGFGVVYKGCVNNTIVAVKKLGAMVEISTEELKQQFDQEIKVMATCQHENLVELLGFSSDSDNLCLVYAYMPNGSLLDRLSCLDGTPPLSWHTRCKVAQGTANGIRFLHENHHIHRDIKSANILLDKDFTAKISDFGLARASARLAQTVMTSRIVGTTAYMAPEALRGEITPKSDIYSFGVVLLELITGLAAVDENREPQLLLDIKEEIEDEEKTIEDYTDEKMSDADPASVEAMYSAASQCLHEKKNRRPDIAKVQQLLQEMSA

[3] = Volume of distribution at steady state in Beagle dog at 2 mg/kg, iv measured up to 24 hrs by LC-MS/MS analysis; assay type: ADME, organism-based, Canis lupus familiaris; details: in vivo
[4] = Metabolic stability in mouse liver microsome assessed as half life at 1 uM measured up to 60 mins in presence of NADPH by LC-MS/MS analysis; assay type: ADME; details: liver microsomes
[5] = Half life in cynomolgus monkey at 20 mg/kg, po measured up to 24 hrs by LC-MS/MS analysis; assay type: ADME, organism-based, Macaca fascicularis; details: in vivo
Mus musculus [6] = test: Anti-psoriasis effect in IMQ-induced C57BL/6 mouse assessed as reduction in ear thickness at 10 mg/kg administered topically twice daily for 6 days and measured after 24 hrs; assay type: functional, organism-based; details: time 7.0 day
[7] = Inhibition of LPS-stimulated IL-6 release in human PBMC cells; assay type: functional, cell-based
[8] = Tmax in Sprague-Dawley rat at 10 mg/kg, po measured up to 24 hrs by LC-MS/MS analysis; assay type: ADME, organism-based; details: in vivo
[9] = Efflux ratio of permeability across basolateral to apical over apical to basolateral side in human Caco-2 cells measured up to 120 mins by LC-MS/MS analysis; assay type: ADME, cell-based
[10] = Cmax in cynomolgus monkey at 1 mg/kg, iv measured up to 24 hrs by LC-MS/MS analysis; assay type: ADME, organism-based, Macaca fascicularis; details: in vivo
[11] = Plasma protein binding in human assessed as unbound fraction incubated for 2 hrs by rapid equilibrium dialysis; assay type: ADME, cell-free
[12] = Cmax in male C57BL/6 mouse at 10 mg/kg, po measured up to 24 hrs by LC-MS/MS analysis; assay type: ADME, organism-based; details: in vivo
[13] = Plasma protein binding in mouse assessed as unbound fraction incubated for 2 hrs by rapid equilibrium dialysis; assay type: ADME, cell-free
[14] = biological target: Protein cereblon/Sal-like protein 4 (Homo sapiens) (UniProt Q96SW2+Q9UJQ4); test: PROTAC activity at CRBN/SALL4 in human PBMC cells assessed as induction of SALL4 degradation at 1 uM by Western blot analysis; assay type: cell-based
Protein cereblon/Sal-like protein 4 (Homo sapiens), sequence (Q96SW2 whole entry, looked up): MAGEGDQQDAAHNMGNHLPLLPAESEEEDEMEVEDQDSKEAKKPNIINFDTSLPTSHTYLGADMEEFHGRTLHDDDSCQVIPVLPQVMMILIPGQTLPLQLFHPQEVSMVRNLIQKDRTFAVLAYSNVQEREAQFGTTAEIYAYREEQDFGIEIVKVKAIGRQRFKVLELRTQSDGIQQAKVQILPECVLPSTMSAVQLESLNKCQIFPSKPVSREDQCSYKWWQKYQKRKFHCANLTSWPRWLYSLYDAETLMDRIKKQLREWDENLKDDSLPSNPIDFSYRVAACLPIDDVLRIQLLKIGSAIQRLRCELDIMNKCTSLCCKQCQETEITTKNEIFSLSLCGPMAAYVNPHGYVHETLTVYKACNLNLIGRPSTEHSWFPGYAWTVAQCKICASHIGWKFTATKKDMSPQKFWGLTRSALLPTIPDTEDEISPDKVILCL
Protein cereblon/Sal-like protein 4 (Homo sapiens), sequence (Q9UJQ4 whole entry, looked up): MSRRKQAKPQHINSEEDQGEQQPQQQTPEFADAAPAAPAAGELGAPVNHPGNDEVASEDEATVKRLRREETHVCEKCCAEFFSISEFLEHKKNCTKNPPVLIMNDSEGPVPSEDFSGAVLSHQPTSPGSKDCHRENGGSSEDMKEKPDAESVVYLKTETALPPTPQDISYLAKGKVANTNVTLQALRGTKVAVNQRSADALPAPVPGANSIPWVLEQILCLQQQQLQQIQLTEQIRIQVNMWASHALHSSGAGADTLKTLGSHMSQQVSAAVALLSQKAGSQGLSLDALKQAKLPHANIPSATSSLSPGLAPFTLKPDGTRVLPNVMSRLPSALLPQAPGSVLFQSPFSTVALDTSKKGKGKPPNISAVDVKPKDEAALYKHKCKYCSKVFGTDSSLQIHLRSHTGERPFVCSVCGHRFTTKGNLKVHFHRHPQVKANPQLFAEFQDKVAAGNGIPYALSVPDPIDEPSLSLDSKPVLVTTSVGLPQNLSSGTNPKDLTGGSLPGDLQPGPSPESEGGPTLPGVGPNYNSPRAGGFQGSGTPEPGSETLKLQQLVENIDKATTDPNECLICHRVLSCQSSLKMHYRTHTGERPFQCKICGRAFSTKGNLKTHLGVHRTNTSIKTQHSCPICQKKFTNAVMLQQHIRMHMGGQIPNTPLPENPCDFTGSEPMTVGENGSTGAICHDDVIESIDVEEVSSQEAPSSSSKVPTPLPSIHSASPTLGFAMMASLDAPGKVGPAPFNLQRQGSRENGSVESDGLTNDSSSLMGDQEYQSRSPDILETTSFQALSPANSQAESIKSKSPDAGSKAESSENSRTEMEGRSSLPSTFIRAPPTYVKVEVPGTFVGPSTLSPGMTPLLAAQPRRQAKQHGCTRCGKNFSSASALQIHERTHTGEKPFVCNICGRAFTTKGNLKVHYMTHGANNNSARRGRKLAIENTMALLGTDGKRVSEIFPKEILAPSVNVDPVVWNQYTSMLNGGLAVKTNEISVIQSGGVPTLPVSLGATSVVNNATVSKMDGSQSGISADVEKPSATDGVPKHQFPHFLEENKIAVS

[15] = biological target: Protein cereblon/Zinc finger protein Aiolos (Homo sapiens) (UniProt Q96SW2+Q9UKT9); test: PROTAC activity at CRBN/IKZF3 in human PBMC cells assessed as induction of SALL4 degradation at 1 uM by Western blot analysis; assay type: cell-based
Protein cereblon/Zinc finger protein Aiolos (Homo sapiens), sequence (Q96SW2 whole entry, looked up): as the sequence (Q96SW2 whole entry, looked up) above
Protein cereblon/Zinc finger protein Aiolos (Homo sapiens), sequence (Q9UKT9 whole entry, looked up): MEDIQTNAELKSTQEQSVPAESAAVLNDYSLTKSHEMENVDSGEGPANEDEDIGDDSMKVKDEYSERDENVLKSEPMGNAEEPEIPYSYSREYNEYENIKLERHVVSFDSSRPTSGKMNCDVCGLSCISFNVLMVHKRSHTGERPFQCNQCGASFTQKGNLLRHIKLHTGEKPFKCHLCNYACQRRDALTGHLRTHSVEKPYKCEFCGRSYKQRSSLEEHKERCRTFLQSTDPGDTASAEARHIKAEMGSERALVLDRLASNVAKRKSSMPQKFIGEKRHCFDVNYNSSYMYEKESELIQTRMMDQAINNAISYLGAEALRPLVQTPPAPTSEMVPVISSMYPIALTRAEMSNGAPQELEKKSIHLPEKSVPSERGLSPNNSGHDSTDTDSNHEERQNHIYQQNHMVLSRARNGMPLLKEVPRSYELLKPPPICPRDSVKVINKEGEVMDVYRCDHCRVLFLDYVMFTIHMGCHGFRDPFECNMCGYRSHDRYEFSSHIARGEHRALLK

CYP1A2 = biological target: T1, CYP1A2 (Homo sapiens, UniProt P05177); test: Inhibition of CYP1A2 in human liver microsome using phenacetin as substrate at 10 uM preincubated for 5 mins followed by NADPH addition and measured after 20 mins by LC-MS/MS analysis relative to control; assay type: ADME; details: human liver microsomes, probe phenacetin, time 25 min
T1 sequence (P05177 whole entry): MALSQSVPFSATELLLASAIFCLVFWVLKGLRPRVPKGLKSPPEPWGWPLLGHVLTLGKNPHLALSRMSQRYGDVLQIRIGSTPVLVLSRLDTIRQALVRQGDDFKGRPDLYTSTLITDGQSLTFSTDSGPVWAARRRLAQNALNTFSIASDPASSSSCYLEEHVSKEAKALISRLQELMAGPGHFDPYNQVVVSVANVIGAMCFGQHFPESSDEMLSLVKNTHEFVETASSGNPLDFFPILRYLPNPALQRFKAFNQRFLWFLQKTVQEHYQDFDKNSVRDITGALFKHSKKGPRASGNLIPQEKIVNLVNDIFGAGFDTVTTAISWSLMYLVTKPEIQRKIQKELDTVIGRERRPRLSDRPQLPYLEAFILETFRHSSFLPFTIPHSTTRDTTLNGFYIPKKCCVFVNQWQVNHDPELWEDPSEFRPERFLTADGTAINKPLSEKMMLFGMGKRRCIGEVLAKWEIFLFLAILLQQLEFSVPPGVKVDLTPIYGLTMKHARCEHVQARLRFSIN

Mus musculus [16] = test: Anti-psoriasis effect in IMQ-induced C57BL/6 mouse assessed as reduction in spleen weight at 30 mg/kg administered topically twice daily for 6 days and measured after 24 hrs; assay type: functional, organism-based; details: time 7.0 day
[17] = Half life in Sprague-Dawley rat at 10 mg/kg, po measured up to 24 hrs by LC-MS/MS analysis; assay type: ADME, organism-based; details: in vivo
Mus musculus [18] = test: Anti-arthritic activity against collagen-induced arthritis DBA/1 mouse model assessed as reduction in pathological score at 30 mg/kg, po administered for 14 days; assay type: functional, organism-based; details: time 14.0 day
CYP2C9 = CYP2C9 (Homo sapiens, UniProt P11712); test: Inhibition of CYP2C9 in human liver microsome using diclofenac as substrate at 10 uM preincubated for 5 mins followed by NADPH addition and measured after 10 mins by LC-MS/MS analysis relative to control; assay type: ADME; details: human liver microsomes, probe diclofenac, time 15 min
CYP2C9, sequence (P11712 whole entry): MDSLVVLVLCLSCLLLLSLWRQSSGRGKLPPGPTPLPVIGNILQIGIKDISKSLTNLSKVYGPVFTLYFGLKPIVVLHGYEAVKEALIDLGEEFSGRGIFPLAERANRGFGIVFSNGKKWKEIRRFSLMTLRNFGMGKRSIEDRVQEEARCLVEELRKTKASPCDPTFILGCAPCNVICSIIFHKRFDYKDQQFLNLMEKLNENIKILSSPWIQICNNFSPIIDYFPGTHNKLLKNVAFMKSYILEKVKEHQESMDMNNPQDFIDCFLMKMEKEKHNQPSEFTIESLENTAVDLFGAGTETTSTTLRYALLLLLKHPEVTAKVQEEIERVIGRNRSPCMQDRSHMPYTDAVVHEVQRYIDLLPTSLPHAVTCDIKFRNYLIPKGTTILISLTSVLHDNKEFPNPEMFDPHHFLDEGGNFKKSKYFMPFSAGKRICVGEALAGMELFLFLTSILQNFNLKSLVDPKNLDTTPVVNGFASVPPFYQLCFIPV

[19] = Oral bioavailability in Beagle dog at 10 mg/kg measured up to 24 hrs by LC-MS/MS analysis; assay type: ADME, organism-based, Canis lupus familiaris; details: in vivo
[20] = Kinetic solubility of compound in FaSSGF at […] incubated for 2 hr by LC-MS analysis; assay type: physicochemical; details: read-out: Kinetic_solubility
CYP2D6 = CYP2D6 (Homo sapiens, UniProt P10635); test: Inhibition of CYP2D6 in human liver microsome using dextromethorphan as substrate at 10 uM preincubated for 5 mins followed by NADPH addition and measured after 10 mins by LC-MS/MS analysis relative to control; assay type: ADME; details: human liver microsomes, probe dextromethorphan, time 15 min
CYP2D6, sequence (P10635 whole entry): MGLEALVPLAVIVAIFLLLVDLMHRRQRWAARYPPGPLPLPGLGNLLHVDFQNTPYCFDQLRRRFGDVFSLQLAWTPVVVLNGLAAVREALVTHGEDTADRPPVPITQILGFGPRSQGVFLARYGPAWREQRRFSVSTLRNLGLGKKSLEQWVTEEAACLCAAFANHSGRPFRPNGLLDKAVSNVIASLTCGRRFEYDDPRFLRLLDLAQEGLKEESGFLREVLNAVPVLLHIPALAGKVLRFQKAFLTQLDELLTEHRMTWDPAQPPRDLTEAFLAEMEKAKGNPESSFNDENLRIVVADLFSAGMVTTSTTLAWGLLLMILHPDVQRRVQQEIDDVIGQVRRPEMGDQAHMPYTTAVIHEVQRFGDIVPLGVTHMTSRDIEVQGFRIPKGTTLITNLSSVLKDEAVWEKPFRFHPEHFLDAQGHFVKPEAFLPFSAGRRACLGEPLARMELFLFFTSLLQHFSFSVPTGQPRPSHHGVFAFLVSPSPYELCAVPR

[21] = Half life in Sprague-Dawley rat at 2 mg/kg, iv measured up to 24 hrs by LC-MS/MS analysis; assay type: ADME, organism-based; details: in vivo
[22] = Half life in male C57BL/6 mouse at 2 mg/kg, iv measured up to 24 hrs by LC-MS/MS analysis; assay type: ADME, organism-based; details: in vivo
Mus musculus [23] = test: Anti-psoriasis effect in IMQ-induced C57BL/6 mouse assessed as reduction in erythema intensity administered topically twice daily for 6 days and measured after 24 hrs; assay type: functional, organism-based; details: dose 10-100 mg/kg, time 7.0 day
[24] = AUClast in Beagle dog at 10 mg/kg, po measured up to 24 hrs by LC-MS/MS analysis; assay type: ADME, organism-based, Canis lupus familiaris; details: in vivo
[25] = Tmax in male C57BL/6 mouse at 10 mg/kg, po measured up to 24 hrs by LC-MS/MS analysis; assay type: ADME, organism-based; details: in vivo
[26] = AUClast in male C57BL/6 mouse at 2 mg/kg, iv measured up to 24 hrs by LC-MS/MS analysis; assay type: ADME, organism-based; details: in vivo
[27] = Half life in Beagle dog at 10 mg/kg, po measured up to 24 hrs by LC-MS/MS analysis; assay type: ADME, organism-based, Canis lupus familiaris; details: in vivo
[28] = Metabolic stability mouse hepatocyte assessed as half life at 1 uM measured up to 120 mins by LC-MS/MS analysis; assay type: ADME, cell-based; details: hepatocytes
[29] = Half life in Beagle dog at 2 mg/kg, iv measured up to 24 hrs by LC-MS/MS analysis; assay type: ADME, organism-based, Canis lupus familiaris; details: in vivo

Structure (SMILES): Cn1c(=O)n(C2CCC(=O)NC2=O)c2cccc(C#CCO[C@H]3CC[C@H](CN4CCC5(CC4)Cc4cc(NC(=O)c6coc7cccnc67)c(N6CCC(CO)CC6)cc4O5)CC3)c21 (some centres not stated)
- AUClast [1]: 25.89 ng·h/mL
- Activity [2]: 74%
- Vdss [3]: 73 L/kg
- half-life at 1 µM [4]: 1.52 h
- half-life [5]: 9.07 h
- Activity (Mus musculus [6]): Active
- IC50 [7]: 16.4 nM
- Tmax [8]: 6 h
- efflux ratio at 2 h [9]: 2.22
- Cmax [10]: 672 ng/mL
- Fu [11]: < 0.08%
- Cmax [12]: 1070 ng/mL
- Fu [13]: 0.09%
- Activity [14]: inactive
- Activity [15]: inactive
- inhibition at 20 min, 10 µM (CYP1A2): 8.32%
- Activity (Mus musculus [16]): Active
- half-life [17]: 3.43 h
- Activity (Mus musculus [18]): Active
- inhibition at 10 min, 10 µM (CYP2C9): 13.9%
- bioavailability [19]: 39%
- solubility kinetic at 2 h [20]: 252 µg/mL (≈ 290 µM)
- inhibition at 10 min, 10 µM (CYP2D6): 13.8%
- half-life [21]: 4 h
- half-life [22]: 3.12 h
- Activity (Mus musculus [23]): Dose-dependent-effect
- AUC(0-t) at 24 h [24]: 6990 ng·h/mL
- Tmax [25]: 2.67 h
- AUC(0-t) at 24 h [26]: 10600 ng·h/mL
- half-life [27]: 10.6 h
- half-life at 1 µM [28]: 3.42 h
- t1/2 [29]: 8.1 h

— ChEMBL document CHEMBL6182949 (J Med Chem, 2025)
